The source of these data is ChEMBL document CHEMBL3352089 (J Med Chem, 2014).

In data set [1] the target is T1, TGF-beta receptor type-1 (Homo sapiens) (UniProt P36897).
T1 sequence (whole entry): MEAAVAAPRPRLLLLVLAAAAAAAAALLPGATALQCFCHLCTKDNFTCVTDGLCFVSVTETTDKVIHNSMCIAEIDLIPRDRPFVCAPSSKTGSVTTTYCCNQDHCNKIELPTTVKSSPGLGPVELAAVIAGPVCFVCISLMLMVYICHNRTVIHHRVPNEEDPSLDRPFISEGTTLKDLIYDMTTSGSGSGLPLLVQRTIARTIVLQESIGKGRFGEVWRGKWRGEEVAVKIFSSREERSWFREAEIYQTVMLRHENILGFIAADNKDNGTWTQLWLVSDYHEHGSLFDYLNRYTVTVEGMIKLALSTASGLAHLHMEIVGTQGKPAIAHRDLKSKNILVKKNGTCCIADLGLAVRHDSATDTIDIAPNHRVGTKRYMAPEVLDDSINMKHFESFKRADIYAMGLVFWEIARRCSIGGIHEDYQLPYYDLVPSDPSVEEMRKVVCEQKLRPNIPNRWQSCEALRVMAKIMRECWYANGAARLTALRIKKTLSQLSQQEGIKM
Description: Inhibition of purified ALK5 kinase (unknown origin) by RT-PCR analysis

A short description of data set [2]: Cytotoxicity against human HepG2 cells assessed as cell viability at 10 uM after 24 hrs by Cell-Titer Glo assay. Particulars: read-out: Activity. In kind it is cell-based.
The nature of data set [3]: Cytotoxicity against human HepG2 cells assessed as cell viability at 1 uM after 24 hrs by Cell-Titer Glo assay. In kind it is cell-based. To be noted: read-out: Activity.
Data set [4] is described as follows: Cytotoxicity against human HepG2 cells assessed as cell viability at 1 uM after 4 hrs by Cell-Titer Glo assay. To be noted: read-out: Activity. Format: cell-based.
Data set [5] in a line: Cytotoxicity against human HepG2 cells assessed as cell viability at 10 uM after 4 hrs by Cell-Titer Glo assay. In kind it is cell-based. To be noted: read-out: Activity.
Data set [6] has as its system T2, Activin receptor type-1 (Homo sapiens), Q04771 [Q207D].
T2 sequence (whole entry): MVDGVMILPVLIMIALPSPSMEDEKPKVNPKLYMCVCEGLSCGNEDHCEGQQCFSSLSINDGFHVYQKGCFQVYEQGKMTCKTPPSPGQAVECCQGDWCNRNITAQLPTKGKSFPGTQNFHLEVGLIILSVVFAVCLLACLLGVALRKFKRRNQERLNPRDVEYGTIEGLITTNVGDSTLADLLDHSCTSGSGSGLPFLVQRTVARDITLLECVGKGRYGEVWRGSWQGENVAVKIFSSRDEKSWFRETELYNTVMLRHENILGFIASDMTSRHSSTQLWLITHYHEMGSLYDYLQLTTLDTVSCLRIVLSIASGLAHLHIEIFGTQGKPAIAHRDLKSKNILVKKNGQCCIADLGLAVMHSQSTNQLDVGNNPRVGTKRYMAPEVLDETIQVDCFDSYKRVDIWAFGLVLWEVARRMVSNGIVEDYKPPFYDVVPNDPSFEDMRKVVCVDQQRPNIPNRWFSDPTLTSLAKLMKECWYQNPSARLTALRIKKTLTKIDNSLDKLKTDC

The nature of data set [7]: Cytotoxicity against human HepG2 cells assessed as cell viability at 100 uM after 4 hrs by Cell-Titer Glo assay. In kind it is cell-based. To be noted: read-out: Activity.
The nature of data set [8]: Cytotoxicity against human HepG2 cells assessed as cell viability at 100 uM after 24 hrs by Cell-Titer Glo assay. To be noted: read-out: Activity. Format: cell-based.

Take `COc1cc(-c2cncc(-c3ccc(N4CCNCC4)cc3)c2)cc(OC)c1OC`: the figures for the ΔTm in data set [1] and in data set [6] were 10.4 °C and 14.1 °C, respectively. Moreover, the viability at 24 h, 10 µM in data set [2] was over 75%. Further, the viability at 24 h, 1 µM in data set [3] is over 75%. The viability at 4 h, 1 µM in data set [4] is over 75%. Besides, in data set [5], the viability at 4 h, 10 µM was over 75%.

In the case of `COc1cc(-c2cc(-c3cccc(O)c3)cnc2N)cc(OC)c1OC`, in data set [2], the viability at 24 h, 10 µM was over 75%. The viability at 4 h, 100 µM in data set [7] was over 75%. Also, the viability at 24 h, 1 µM in data set [3] is over 75%. In addition, the viability at 4 h, 1 µM in data set [4] is over 75%. The viability at 4 h, 10 µM in data set [5] was over 75%. Further, the ΔTm (as a rule, the change in melting temperature against a reference sample) in data set [6] was found to be 13.2 °C.

Regarding `COc1cc(-c2cc(-c3ccc(N4CCNCC4)cc3)cnc2C)cc(OC)c1OC`, the ΔTm in data set [1] came to 9.7 °C; in data set [6], 13.7 °C. Further, in data set [2], the viability at 24 h, 10 µM was over 75%. Moreover, the viability at 4 h, 100 µM in data set [7] was over 75%. Moreover, in data set [3], the viability at 24 h, 1 µM was over 75%. Also, in data set [4], the viability at 4 h, 1 µM was over 75%. Moreover, the viability at 4 h, 10 µM in data set [5] was over 75%. Moreover, the viability at 24 h, 100 µM in data set [8] is over 75%.

For the compound `COc1cc(-c2cc(-c3ccc(N4CCNCC4)cc3)cnc2N)cc(OC)c1OC`, the thermal shift (ΔTm) in data set [1] stood at 13.9 °C; in data set [6], 15.1 °C. The viability at 24 h, 10 µM in data set [2] was over 75%. Moreover, the viability at 4 h, 100 µM in data set [7] is over 75%. Besides, the viability at 24 h, 1 µM in data set [3] is over 75%. Moreover, the viability at 4 h, 1 µM in data set [4] was over 75%. Moreover, the viability at 4 h, 10 µM in data set [5] was over 75%.

Turning to `COc1cc(-c2cc(-c3ccc(O)cc3)cnc2N)cc(OC)c1OC`, the viability at 24 h, 10 µM in data set [2] is over 75%. The viability at 4 h, 100 µM in data set [7] was over 75%. Also, the viability at 24 h, 1 µM in data set [3] is over 75%. For the same compound, the viability at 4 h, 1 µM in data set [4] is over 75%. For the same compound, the viability at 4 h, 10 µM in data set [5] was over 75%. Also, the viability at 24 h, 100 µM in data set [8] is over 75%.
